# Data reported in patent US10280169B2, “Biaryl bruton's tyrosine kinase inhibitors” (BIOGEN MA INC., priority 2013, dated 2019).
# Target: T1, BTK (Homo sapiens, UniProt Q06187)
# T1 construct: purchased Upstate 14-552
# Experiment: In vitro BTK kinase assay: BTK-POLYGAT-LS assay
# Assay type: biochemical
# Details: 10 uM ATP, read-out: IC50 (10 uMATP)
# T1 sequence (Q06187 whole entry): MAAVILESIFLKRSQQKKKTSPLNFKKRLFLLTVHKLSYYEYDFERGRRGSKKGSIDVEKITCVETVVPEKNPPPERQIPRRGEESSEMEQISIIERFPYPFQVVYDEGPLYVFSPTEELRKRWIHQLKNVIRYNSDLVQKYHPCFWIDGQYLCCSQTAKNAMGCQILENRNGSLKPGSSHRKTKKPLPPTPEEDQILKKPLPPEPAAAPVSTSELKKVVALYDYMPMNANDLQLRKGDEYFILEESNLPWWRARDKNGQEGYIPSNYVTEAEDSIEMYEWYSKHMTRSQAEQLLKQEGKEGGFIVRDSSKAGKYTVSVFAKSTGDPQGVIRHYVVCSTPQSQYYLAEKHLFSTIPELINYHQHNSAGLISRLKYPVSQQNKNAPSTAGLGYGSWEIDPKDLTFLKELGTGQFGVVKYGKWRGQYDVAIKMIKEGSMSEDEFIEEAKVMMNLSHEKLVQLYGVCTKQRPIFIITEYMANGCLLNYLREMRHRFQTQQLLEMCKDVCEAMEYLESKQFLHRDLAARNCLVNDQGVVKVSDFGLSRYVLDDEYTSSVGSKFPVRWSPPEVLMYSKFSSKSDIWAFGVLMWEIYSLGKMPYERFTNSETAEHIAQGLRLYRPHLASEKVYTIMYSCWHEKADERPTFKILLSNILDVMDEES
row,SMILES,IC50
1,"O=C(NC1CCCc2cc(-c3ncnc4[nH]ccc34)ccc21)c1nc2c(s1)CCCC2 (stereo not drawn) [Example I-17, N-(6-(7H-pyrrolo[2,3-d]pyrimidin-4-yl)-1,2,3,4-tetrahydronaphthalen-1-yl)-4,5,6,7-tetrahydrobenzo[d]thiazole-2-carboxamide]",10 to 99 nM
2,"CC(C)(C)c1ccc(C(=O)NCc2ccc(-c3ncnc4[nH]ccc34)cc2Cl)nc1 [Example I-5, 5-(tert-butyl)-N-(2-chloro-4-(7H-pyrrolo[2,3-d]pyrimidin-4-yl)benzyl)picolinamide]",10 to 99 nM
3,"O=C(N[C@@H]1CCCc2cc(-c3ncnc4[nH]ncc34)ccc21)c1cc2c(s1)CCCC2 [Example I-86, (R)—N-(6-(1H-Pyrazolo[3,4-d]pyrimidin-4-yl)-1,2,3,4-tetrahydronaphthalen-1-yl)-4,5,6,7-tetrahydrobenzo[b]thiophene-2-carboxamide]",10 to 99 nM
4,"C[C@@H](NC(=O)c1nc2c(s1)CCCC2)c1ccc(-c2ncnc3[nH]ccc23)cc1 [Example I-74, (R)—N-(1-(4-(7H-pyrrolo[2,3-d]pyrimidin-4-yl)phenyl)ethyl)-4,5,6,7-tetrahydrobenzo[d]thiazole-2-carboxamide]",100 to 999 nM
5,"CC(C)(C)c1ccc(C(=O)NC2CCCc3cc(-c4ncnc5[nH]ccc45)ccc32)nc1 (stereo not drawn) [Example I-15, N-(6-(7H-pyrrolo[2,3-d]pyrimidin-4-yl)-1,2,3,4-tetrahydronaphthalen-1-yl)-5-(tert-butyl)picolinamide]",10 to 99 nM
6,"CC(C)(C)c1ccc(C(=O)NCc2cc(F)c(-c3ncnc4[nH]ccc34)cc2Cl)nc1 [Example I-13, 5-(tert-butyl)-N-(2-chloro-5-fluoro-4-(7H-pyrrolo[2,3-d]pyrimidin-4-yl)benzyl)picolinamide]",10 to 99 nM
7,CC(C)(C)c1ccc(C(=O)NCc2ncc(-c3ncnc4[nH]ccc34)cc2Cl)nc1 [Example I-12],100 to 999 nM
8,"CC(C)(C)c1ccc(C(=O)NCc2ccc(-c3ccnc4[nH]ccc34)nc2)nc1 [Example I-72, N-((6-(1H-pyrrolo[2,3-b]pyridin-4-yl)pyridin-3-yl)methyl)-5-(tert-butyl)picolinamide]",100 to 999 nM
9,"O=C(NC1CCCc2cc(-c3ncnc4[nH]ncc34)ccc21)c1ccc(Cl)c(F)c1 (stereo not drawn) [Example I-90, N-(6-(1H-pyrazolo[3,4-d]pyrimidin-4-yl)-1,2,3,4-tetrahydronaphthalen-1-yl)-4-chloro-3-fluorobenzamide]",100 to 999 nM
10,"O=C(NCc1ccc(-c2ncnc3[nH]ccc23)cc1)c1nc2c(s1)CCCC2 [Example I-62, N-(4-(7H-pyrrolo[2,3-d]pyrimidin-4-yl)benzyl)-4,5,6,7-tetrahydrobenzo[d]thiazole-2-carboxamide]",10 to 99 nM

# Next, values leading:
row,IC50,SMILES
1,< 10 nM,"Cn1cc(-c2cc3c(-c4ccc5c(c4)CCCCC5NC(=O)c4cnc(C(C)(C)C)s4)ncnc3[nH]2)cn1 (stereo not drawn) [Example I-161, 2-(tert-butyl)-N-(2-(6-(1-methyl-1H-pyrazol-4-yl)-7H-pyrrolo[2,3-d]pyrimidin-4-yl)-6,7,8,9-tetrahydro-5H-benzo[7]annulen-5-yl)thiazole-5-carboxamide]"
2,< 10 nM,"Cc1nc(-c2ccnc3[nH]ncc23)ccc1CNC(=O)c1cc2c(s1)CCCC2 [Example I-118, N-((2-methyl-6-(1H-pyrazolo[3,4-b]pyridin-4-yl)pyridin-3-yl)methyl)-4,5,6,7-tetrahydrobenzo[b]thiophene-2-carboxamide]"
3,10 to 99 nM,"O=C(NC1CCCc2cc(-c3ncnc4[nH]ncc34)ccc21)c1nc2ccccc2s1 (stereo not drawn) [Example I-106, N-(6-(1H-pyrazolo[3,4-d]pyrimidin-4-yl)-1,2,3,4-tetrahydronaphthalen-1-yl)benzo[d]thiazole-2-carboxamide]"
4,10 to 99 nM,"Cc1cc(-c2ncnc3nc(N4CCOC(C(=O)O)C4)[nH]c23)ccc1CNC(=O)c1cnc(C(C)(C)C)s1 (stereo not drawn) [Example I-124, 4-(6-(4-((2-(tert-butyl)thiazole-5-carboxamido)methyl)-3-methylphenyl)-7H-purin-8-yl)morpholine-2-carboxylic acid]"
5,100 to 999 nM,"CC(NC(=O)c1nc2c(s1)CCCC2)c1ccc(-c2ncnc3[nH]ncc23)cc1C(F)(F)F (stereo not drawn) [Example I-145, N-(1-(4-(1H-pyrazolo[3,4-d]pyrimidin-4-yl)-2-(trifluoromethyl)phenyl)ethyl)-4,5,6,7-tetrahydrobenzo[d]thiazole-2-carboxamide]"
6,< 10 nM,"Cn1cc(-c2cc3c(-c4ccc5c(c4)CCCC5NC(=O)N4CCC(C(C)(C)C)C4)ncnc3[nH]2)cn1 (stereo not drawn) [Example I-157, 3-(tert-butyl)-N-(6-(6-(1-methyl-1H-pyrazol-4-yl)-7H-pyrrolo[2,3-d]pyrimidin-4-yl)-1,2,3,4-tetrahydronaphthalen-1-yl)pyrrolidine-1-carboxamide]"
7,10 to 99 nM,"O=C(NC(CO)c1ccc(-c2ncnc3[nH]ncc23)cc1)c1cc2c(s1)CCCC2 (stereo not drawn) [Example I-132, N-(1-(4-(1H-pyrazolo[3,4-d]pyrimidin-4-yl)phenyl)-2-hydroxyethyl)-4,5,6,7-tetrahydrobenzo[b]thiophene-2-carboxamide]"
8,< 10 nM,"CC(C)(C)c1csc(C(=O)N[C@@H]2CCCc3cc(-c4ncnc5[nH]ncc45)ccc32)n1 [Example I-99, (R)—N-(6-(1H-pyrazolo[3,4-d]pyrimidin-4-yl)-1,2,3,4-tetrahydronaphthalen-1-yl)-4-(tert-butyl)thiazole-2-carboxamide]"
9,10 to 99 nM,"Cc1cc(-c2ccnc3[nH]ccc23)cnc1CNC(=O)c1cc2c(s1)CCCC2 [Example I-126, N-((3-methyl-5-(1H-pyrrolo[2,3-b]pyridin-4-yl)pyridin-2-yl)methyl)-4,5,6,7-tetrahydrobenzo[b]thiophene-2-carboxamide]"
10,10 to 99 nM,"Cc1cc(-c2ncnc3cc[nH]c23)ccc1C(C)NC(=O)c1cc2c(s1)CCCC2 (stereo not drawn) [Example I-123, N-(1-(2-methyl-4-(5H-pyrrolo[3,2-d]pyrimidin-4-yl)phenyl)ethyl)-4,5,6,7-tetrahydrobenzo[b]thiophene-2-carboxamide]"
11,10 to 99 nM,"Cc1cc(-c2ncnc3nc(N4CCN(C)CC4)sc23)ccc1CNC(=O)c1cnc(C(C)(C)C)s1 [Example I-133, 2-(tert-butyl)-N-(2-methyl-4-(2-(4-methylpiperazin-1-yl)thiazolo[4,5-d]pyrimidin-7-yl)benzyl)thiazole-5-carboxamide]"
12,10 to 99 nM,"CC(C)(C)c1ncc(C(=O)NC2CCCc3cc(-c4ncnc5cc[nH]c45)ccc32)s1 (stereo not drawn) [Example I-129, N-(6-(5H-pyrrolo[3,2-d]pyrimidin-4-yl)-1,2,3,4-tetrahydronaphthalen-1-yl)-2-(tert-butyl)thiazole-5-carboxamide]"
13,< 10 nM,"CC(C)OC1CN(C(=O)NC2CCCCc3cc(-c4ncnc5[nH]c(-c6cnn(C)c6)cc45)ccc32)C1 (stereo not drawn) [Example I-163, 3-isopropoxy-N-(2-(6-(1-methyl-1H-pyrazol-4-yl)-7H-pyrrolo[2,3-d]pyrimidin-4-yl)-6,7,8,9-tetrahydro-5H-benzo[7]annulen-5-yl)azetidine-1-carboxamide]"
14,< 10 nM,"Cn1cc(-c2cc3c(-c4ccc5c(c4)CCCCC5NC(=O)c4cnn(C(C)(C)C)c4)ncnc3[nH]2)cn1 (stereo not drawn) [Example I-160, 1-(tert-butyl)-N-(2-(6-(1-methyl-1H-pyrazol-4-yl)-7H-pyrrolo[2,3-d]pyrimidin-4-yl)-6,7,8,9-tetrahydro-5H-benzo[7]annulen-5-yl)-1H-pyrazole-4-carboxamide]"
